Key:
platelets = test: Whole cell tyrosine phosphorylation and functional responses of platelets stimulated by rhodocytin; type: cell-based; details: data not shown
CLEC-2 [1] = test: Precipitation of CLEC-2 from platelet lysates by GST fusion protein of tandem Syk SH2 domains; type: cell-based, human; details: 30 μM PP2 pretreatment, 50 nM rhodocytin
Protocol: (A) Washed murine platelets were stimulated with 50 nM rhodocytin for the indicated times. Whole cell lysates or immunoprecipitates with antibodies against PLCγ2, Vav1, or Vav3 were separated by SDS-PAGE and western blotted with the indicated antibodies. (B) Control or Syk-deficient platelets were stimulated with 30 nM rhodocytin and platelet aggregation was monitored using an aggregometer. (C) (i)(ii) Washed human platelets, pretreated with or without 30 μM PP2, were stimulated with 50 nM rhodocytin or 10 μg/ml of convulxin for the indicated times. Reactions were terminated by addition of an equal volume of 2× lysis buffer. […] The resultant supernatant was incubated with 40 μl of glutathione beads associated with GST fusion protein containing tandem Syk SH2 domains. Precipitated proteins were separated by SDS-PAGE and western blotted with an antibody to CLEC-2. (iii) CLEC-2 associated with 10 μg of CLEC-2 phospho-YXXL-containing peptide plus avidin-sepharose was detected by CLEC-2 antibody. The data are representative of 2-5 experiments.

CLEC-2 [2] = test: CLEC-2 tyrosine phosphorylation in human platelets (immunoprecipitation and western blotting); type: cell-based; details: for block of rhodocytin-induced tyrosine phosphorylation of CLEC-2: 30 μM inhibitor pretreatment, 50 nM rhodocytin; for tyrosine phosphorylation of CLEC-2: 50 μg/ml collagen or 100 μM SFLLRN, time course of up to 5 min
Protocol: (§1) Washed human platelets (1×10^9/ml) pretreated with 1 mM GRGDS (SEQ ID NO: 5) peptide or washed murine platelets (2×10^8/ml) pretreated with 10 μM lotrafiban to inhibit platelet aggregation were stimulated with 50 nM rhodocytin, 100 μM SFLLRN (SEQ ID NO: 6), or 50 μg/ml of collagen. […] Reactions were terminated by addition of 2× ice-cold lysis buffer. Platelet lysates were precleared and detergent-insoluble debris was clarified as described 17. A small aliquot was dissolved with SDS sample buffer for detection of total tyrosine phosphorylation. Antibodies against CLEC-2, PLCγ2, Syk, Btk, SLP-76, LAT, Vav1, or Vav3 were added to the resultant supernatant and incubated overnight. Where indicated, 10 μg of CLEC-2 YXXL-containing peptide plus avidin-Sepharose or GST-fusion protein-associated glutathione Sepharose were incubated with the lysates. […] The samples were lysed with 2× lysis buffer before and 5 min after stimulation. […] After removing insoluble debris by centrifugation, CLEC-2 was immunoprecipitated by addition of protein G. Precipitated proteins or whole cell lysates were separated by SDS-PAGE, electrotransferred, and western blotted by the indicated antibodies.

[3] = system: Syk, Btk, LAT, SLP-76, Vav1, Vav3, PLCγ2; test: Tyrosine phosphorylation of signaling proteins of the GPVI cascade in platelets; type: cell-based, human; details: PP2 present; not shown
Syk = Syk (Homo sapiens, UniProt P43405); details: 10 μg peptide plus avidin-Sepharose, platelet lysates
Protocol: as §1

## Cc1ccc(-c2nn(C(C)(C)C)c3ncnc(N)c23)cc1 [PP1]
platelets
  block of tyrosine phosphorylation in whole cells and functional responses to rhodocytin: block tyrosine phosphorylation in whole cells and all functional responses

## CC(C)(C)n1nc(-c2ccc(Cl)cc2)c2c(N)ncnc21 [PP2]
CLEC-2 [1]
  effect on precipitation of CLEC-2 by Syk fusion protein from rhodocytin-stimulated platelets: abolished
platelets
  block of tyrosine phosphorylation in whole cells and functional responses to rhodocytin: block tyrosine phosphorylation in whole cells and all functional responses
CLEC-2 [2]
  block of rhodocytin-induced tyrosine phosphorylation of CLEC-2: block tyrosine phosphorylation of both the 32 and 40 kDa forms of CLEC-2
[3]
  effect on rhodocytin-induced tyrosine phosphorylation of Syk, Btk, LAT, SLP-76, Vav1, Vav3, PLCγ2: abolished

## Nc1ncnc2c1cnn2-c1ccccc1 [PP3]
CLEC-2 [2]
  block of rhodocytin-induced tyrosine phosphorylation of CLEC-2: not

## Biotin-6-aminohexanoic acid (Ahx)-MQDEDGY(PO3H2)ITLNIK-OH
Syk
  interaction of Syk with CLEC-2 YXXL peptide: Syk could be precipitated

## Biotin-6-aminohexanoic acid (Ahx)-MQDEDGYITLNIK-OH [non-phosphorylated peptide]
Syk
  interaction of Syk with CLEC-2 YXXL peptide: no interaction

## Ser-Phe-Leu-Leu-Arg-Asn (SFLLRN)
CLEC-2 [2]
  tyrosine phosphorylation of CLEC-2: does not undergo tyrosine phosphorylation

## collagen
CLEC-2 [2]
  tyrosine phosphorylation of CLEC-2: does not undergo tyrosine phosphorylation

Source: patent publication US20090297508A1, “Compositions and methods for treating hemostasis disorders associated with clec-2 signal transduction” (UNIVERSITY OF YAMANASHI, priority 2005, published 2009)
